Consider seven molecules from patent US7312219B2, “Heteroaromatic inhibitors of fructose 1,6-bisphosphatase” (Metabasis Therapeutics, Inc., priority 1998, dated 2007).

One series addresses T1, human liver FBPase (Homo sapiens, UniProt P09467).
T1 construct: made in house; host or cells: E. coli BL21
T1 sequence (P09467 2-338 limits assumed): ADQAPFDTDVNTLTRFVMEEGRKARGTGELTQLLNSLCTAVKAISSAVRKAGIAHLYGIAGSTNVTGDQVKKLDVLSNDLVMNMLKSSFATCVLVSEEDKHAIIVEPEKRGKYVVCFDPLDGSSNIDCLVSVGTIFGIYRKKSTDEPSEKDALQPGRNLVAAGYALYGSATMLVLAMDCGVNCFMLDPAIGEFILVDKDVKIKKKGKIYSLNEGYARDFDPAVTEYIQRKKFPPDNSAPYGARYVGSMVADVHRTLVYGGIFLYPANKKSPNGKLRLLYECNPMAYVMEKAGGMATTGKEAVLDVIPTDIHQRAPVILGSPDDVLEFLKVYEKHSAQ
As to the kind of experiment: Inhibition of Human Liver FBPase. It is filed as biochemical. The conditions noted are these: read-out: IC50 (hlFBPase).

The next series deals with T2, rat liver FBPase (Rattus norvegicus, UniProt P19112).
T2 sequence (P19112 2-363 limits assumed): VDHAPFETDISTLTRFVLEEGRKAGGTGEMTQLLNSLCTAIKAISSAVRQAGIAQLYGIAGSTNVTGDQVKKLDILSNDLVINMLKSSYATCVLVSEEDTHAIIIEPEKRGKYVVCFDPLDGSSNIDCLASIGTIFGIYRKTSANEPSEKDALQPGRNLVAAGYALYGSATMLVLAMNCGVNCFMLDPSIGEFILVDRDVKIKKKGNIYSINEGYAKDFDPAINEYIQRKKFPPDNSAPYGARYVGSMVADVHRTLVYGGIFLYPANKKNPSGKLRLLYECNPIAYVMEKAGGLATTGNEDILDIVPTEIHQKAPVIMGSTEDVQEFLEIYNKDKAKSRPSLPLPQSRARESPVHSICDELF
Nature of the series: Inhibition of Rat Liver FBPase.

Series [1] deals with T3, Adenylate Kinase (rabbit muscle) (Oryctolagus cuniculus, UniProt P00569).
T3 construct: Enzyme (rabbit muscle) was purchase from Sigma; purchased Sigma; host or cells: rabbit muscle
T3 sequence (P00569 1-194): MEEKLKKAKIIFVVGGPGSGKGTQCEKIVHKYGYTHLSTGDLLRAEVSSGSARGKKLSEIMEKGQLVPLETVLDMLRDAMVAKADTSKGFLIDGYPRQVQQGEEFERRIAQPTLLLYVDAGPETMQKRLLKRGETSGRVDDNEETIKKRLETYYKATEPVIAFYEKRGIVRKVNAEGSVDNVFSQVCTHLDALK
As to the kind of experiment: AMP Site/Enzyme Selectivity: Adenylate Kinase. It is filed as biochemical. The conditions noted are these: read-out: Adenylate Kinase (inh.).

The target of another series is Porcine heart AMPDA. As to the kind of experiment: AMP Site/Enzyme Selectivity: Adenosine Monophosphate Deaminase. It is filed as biochemical. As to conditions: read-out: AMP Deaminase (inh.).
Series [2] deals with Gluconeogenesis in Rat Hepatocytes. Nature of the series: Inhibition of Gluconeogenesis in Rat Hepatocytes. It is filed as cell-based. The conditions noted are these: 10 mM lactate, 1 mM pyruvate, 1 hour incubation, read-out: IC50 Glucose Production. The method, then:
Hepatocytes were prepared from overnight fasted Sprague-Dawley rats (250–300 g) according to the procedure of Berry and Friend (Berry, M. N., Friend, D. S., 1969, J. Cell. Biol. 43, 506–520) as modified by Groen (Groen, A. K., Sips, H. J., Vervoorn, R. C., Tager, J. M. , 1982, Eur. J. Biochem. 122, 87–93). Hepatocytes (75 mg wet weight/ml) were incubated in 1 ml Krebs-bicarbonate buffer containing 10 mM Lactate, 1 mM pyruvate, 1 mg/ml BSA, and test compound concentrations from 1 to 500 μM. Incubations were carried out in a 95% oxygen, 5% carbon dioxide atmosphere in closed, 50-ml Falcon tubes submerged in a rapidly shaking water bath (37° C.). After 1 hour, an aliquot (0.25 ml) was removed, transferred to an Eppendorf tube and centrifuged. 50 μl of supernatant was then assayed for glucose content using a Sigma Glucose Oxidase kit as per the manufacturer's instructions.

For series [3], the target named is T4, Glycogen Phosphorylase (rabbit muscle) (Oryctolagus cuniculus, UniProt P00489).
T4 construct: Enzyme (rabbit muscle) was purchased from Sigma; purchased Sigma; host or cells: rabbit muscle
T4 sequence (P00489 2-843 limits assumed): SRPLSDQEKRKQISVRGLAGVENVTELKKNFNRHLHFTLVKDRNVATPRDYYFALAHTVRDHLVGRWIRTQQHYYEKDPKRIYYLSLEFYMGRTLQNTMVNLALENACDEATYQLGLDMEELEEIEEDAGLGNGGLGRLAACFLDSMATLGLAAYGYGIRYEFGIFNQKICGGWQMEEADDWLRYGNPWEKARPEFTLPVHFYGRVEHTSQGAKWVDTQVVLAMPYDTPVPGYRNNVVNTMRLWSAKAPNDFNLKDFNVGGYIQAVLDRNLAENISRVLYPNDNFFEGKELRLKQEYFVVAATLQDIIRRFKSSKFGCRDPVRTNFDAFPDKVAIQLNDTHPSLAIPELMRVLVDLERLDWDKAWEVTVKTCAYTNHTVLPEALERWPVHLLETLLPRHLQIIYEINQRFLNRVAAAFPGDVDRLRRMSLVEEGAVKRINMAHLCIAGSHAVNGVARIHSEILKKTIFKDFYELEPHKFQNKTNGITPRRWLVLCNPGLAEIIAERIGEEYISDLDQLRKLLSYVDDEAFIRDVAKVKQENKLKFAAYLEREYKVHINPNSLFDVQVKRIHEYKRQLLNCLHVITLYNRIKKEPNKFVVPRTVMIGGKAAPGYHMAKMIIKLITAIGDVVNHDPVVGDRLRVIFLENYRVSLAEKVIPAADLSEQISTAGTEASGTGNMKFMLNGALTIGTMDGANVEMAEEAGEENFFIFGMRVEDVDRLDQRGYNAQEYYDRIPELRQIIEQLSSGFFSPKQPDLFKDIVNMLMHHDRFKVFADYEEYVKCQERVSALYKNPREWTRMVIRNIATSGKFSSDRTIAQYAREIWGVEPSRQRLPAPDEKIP
As to the kind of experiment: AMP Site/Enzyme Selectivity: Glycogen Phosphorylase. It is filed as biochemical. As to conditions: activation; read-out: Glycogen Phosphorylase (act.).

The subject of a further series is Fasted Rats. As to the kind of experiment: Blood Glucose Lowering Following Intravenous Administration to Fasted Rats. It is filed as in vivo, rat. The conditions noted are these: Rattus norvegicus, iv; 18 h fasted Sprague Dawley rats, 10 mg/kg i.v., 1 hour, relative to saline-treated controls. The method, then:
Inhibitors were disolved in water and the solution adjusted to neutrality with NaOH. Blood samples were obtained from the tail vein of conscious animals just prior to injection and after 1 hour. Blood glucose was measured using a HemoCue Inc. glucose analyzer according to the instructions of the manufacturer.

The target of the next series is T5, Human adenosine kinase (Homo sapiens, UniProt P55263).
T5 construct: made in house; host or cells: E. coli
As to the kind of experiment: AMP Site/Enzyme Selectivity: Adenosine Kinase. As to conditions: read-out: Adenosine Kinase (inh.). It is filed as biochemical.

The nature of series [4]: Estimation of the Oral Bioavailability of Phosphonic Acids and their Prodrugs. The conditions noted are these: fasted rats, oral 10–50 mg/kg, 24 h urinary recovery of phosphonic acid, oral vs intravenous; for bioavailability: Sprague-Dawley, rat, urine. It is filed as in vivo, rat. The method, then:
Phosphonic acids were dissolved in water, and the solution adjusted to neutrality with sodium hydroxide. Prodrugs were dissolved in 10% ethanol/90% polyethlene glycol (mw 400). Compound was administered by oral gavage to 18-hour fasted Sprague-Dawley rats (220–250 g) at doses ranging from 10–50 mg/kg. The rats were subsequently placed in metabolic cages and urine was collected for 24 hours. The quantity of phosphonic acid excreted into urine was determined by HPLC analysis as described in Example G. In a separate study, urinary recovery was determined following intravenous (tail vein) administration of compound (in the case of the prodrugs, the appropriate parent phosphonic acid was administered i.v.).

Series [5] can be described thus: Analysis of Drug Levels and Liver Accumulation in Rats. It is filed as in vivo, rat. The conditions noted are these: fasted rats, 10 mgs/kg i.v., one hour post injection, liver. As to the method: The compound was dissolved in water and the solution adjusted to neutrality with NaOH. One hour post injection rats were anesthetized with halothane and a liver biopsy (approx. 1 g) was taken as well as a blood sample (2 ml) from the posterior vena cava. A heparin flushed syringe and needle were used for blood collection. The liver sample was immediately homogenized in ice-cold 10% perchloric acid (3 ml), centrifuged, and the supernatant neutralized with ⅓rd volume of 3 M KOH/3 M KHCO3. […] Plasma was prepared from the blood sample by centrifugation and extracted by addition of methanol to 60% (v/v). The methanolic extract was clarified by centrifugation and filtration and then analyzed by HPLC as described above.

Another series relates to Fasted Rat. As to the kind of experiment: Glucose Lowering Following Oral Administration to the Fasted Rat. It is filed as in vivo. The conditions noted are these: oral gavage, 18-hour fasted rats, relative to saline controls. The method, then: Compounds were administered by oral gavage to 18-hour fasted, Sprague Dawley rats (250–300 g, n =3/4/group). Phosphonic acids were prepared in deionized water, and the solution adjusted to neutrality with solidum hydroxide. Prodrugs were dissolved in polyethylene glycol (mw 400). […] The table below indicates the maximum glucose lowering achieved relative to control animals dosed with saline.

Series [6] in a line: Oral Absorption Determinations of Prodrugs in the Rat. The conditions noted are these: normal fed rats.

SMILES strings stand for the structures. Where two headings read alike, the source gives them in different places. A value given as a limit tells only on which side of the number the result lay.

For orientation: inhibition in vivo means the percentage by which the read-out fell short of the control. The low end stands for little suppression, the high end for strong suppression. One may read the bioavailability as the share of a dose that reaches the circulation, judged against a reference dose that is usually intravenous. By melting point is commonly meant the temperature of the solid-liquid transition.

T5 sequence (P55263 1-345 isoform P55263-2): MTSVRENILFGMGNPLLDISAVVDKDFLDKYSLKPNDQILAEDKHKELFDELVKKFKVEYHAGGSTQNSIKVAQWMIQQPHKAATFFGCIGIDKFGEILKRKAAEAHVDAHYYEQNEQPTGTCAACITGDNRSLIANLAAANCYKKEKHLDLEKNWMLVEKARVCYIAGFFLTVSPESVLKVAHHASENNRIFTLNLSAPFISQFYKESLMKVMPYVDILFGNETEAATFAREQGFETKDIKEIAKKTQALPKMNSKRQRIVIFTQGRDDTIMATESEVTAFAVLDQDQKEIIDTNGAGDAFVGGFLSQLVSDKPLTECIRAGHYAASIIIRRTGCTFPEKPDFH
Description for rat liver FBPase: Enzymatic activity was measured spectrophotometrically in reactions that coupled the formation of product (fructose 6-phosphate) to the reduction of dimethylthiazoldiphenyltetrazolium bromide (MTT) via NADP^+ and phenazine methosulfate (PMS), using phosphoglucose isomerase and glucose 6-phosphate dehydrogenase as the coupling enzymes.
E. coli strain BL21 transformed with a rat liver FBPase-encoding plasmid was obtained from Dr. M. R. El-Maghrabi at the State University of New York at Stony Brook.

Regarding `Nc1ncnc2c1ncn2[C@@H]1O[C@H](COP(=O)(O)O)[C@@H](O)[C@H]1O` [AMP, reference compound], the values for the IC50 on human liver FBPase and at rat liver FBPase (read-out: IC50 (rlFBPase)) were 1000 nM and 20 µM, respectively.

For the molecule `CC(C)Cc1sc(N)nc1-c1ccc(P(=O)(O)O)o1` [Compound 3.1, 2-amino-5-isobutyl-4-[2-(5-phosphono)furanyl]thiazole], the IC50 is more than 500 µM in series [1], more than 10 µM at Porcine heart AMPDA, 2.5 µM in series [2] (Hepatocyte) and more than 10 µM at Human adenosine kinase. In [3], the EC50 is more than 100 µM. The molecule also returned an inhibition in vivo at 10 mg/kg with Fasted Rats of 65%. Also, in series [4], the bioavailability was 4%.

For `CC(C)Cc1[se]c(N)nc1-c1ccc(P(=O)(O)O)o1` [Compound 3.70, 2-Amino-5-isobutyl-4-[2-(5-phosphono)furanyl]selenazole], the figures for the IC50 on human liver FBPase and against rat liver FBPase were 40 nM and 0.15 µM, respectively.

For `CC(C)Cc1oc(N)nc1-c1ccc(P(=O)(O)O)o1` [Compound 10.1, 2-amino-5-isobutyl-4-[2-(5-phosphono)furanyl]oxazole], the IC50 is more than 500 µM in [1], more than 10 µM at Porcine heart AMPDA and more than 10 µM at Human adenosine kinase. Moreover, the “Liver Conc.” value in [5] is 35.6 ± 4.2 nmol/g. The EC50 in series [3] was more than 100 µM. The same molecule yielded an inhibition in vivo at 10 mg/kg with Fasted Rats of 51%. For the same molecule, the “% Glucose Lowering (maximum)” value in the series on Fasted Rat (dose 90 mg/kg, time point 3 h) is listed as 55%. For the same molecule, the bioavailability in series [4] was 21%.

Molecule `CCc1cc(CC)c(-c2ccc(P(=O)(O)O)o2)nc1N` [Compound 15.4, 2-amino-3,5-diethyl-6-[2-(5-phosphono)furanyl]pyridine] had a melting point of 217 to 218 °C.

Regarding `CCCc1cnc(N)nc1-c1ccc(P(=O)(O)O)o1` [Compound 16.1, 2-amino-5-propyl-4-[2-(5-phosphono)furanyl]pyrimidine], the melting point fell in the range of 258 to 259 °C.

For the molecule `CC(C)Cc1sc(N)nc1-c1ccc(P2(=O)OCCC(c3cc(Cl)cc(Cl)c3)O2)o1` (stereo not drawn) [Compound 19.48, 2-Amino-5-isobutyl-4-{2-[5-(1-(3,5-dichlorophenyl)-1,3-propyl)phosphono]furanyl}thiazole], the IC50 in series [2] is 6.5 µM. For the same molecule, the “% excreted i.p.” value in series [6] (30 mg/kg intraperitoneal, parent compound 3.1 in 24 h urine) is 11.3%. In [6] (30 mg/kg oral gavage, parent compound 3.1 in 24 h urine), the “% excreted p.o.” value stood at 11.6%. Also, the “% absorption” value in series [6] (30 mg/kg, urinary excretion oral vs intraperitoneal) came to 100%. For the same molecule, in the series with Fasted Rat (dose 30 mg/kg, time point 2 h), the “% Glucose Lowering (maximum)” value is 63%. The “% Oral bioavailability” value in series [4] was 12%.
